Assay results from PubChem BioAssay (NCI).
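Briefly, cells in 96-well plates were exposed to five compound concentrations for 48 h, and endpoints were estimated by linear interpolation. TGI is the concentration that stops growth completely.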

Columns and labels:
Test in all cases: NCI-60 cell line screen, 48 h
HS 578T breast = tested on: HS 578T breast
HCT-15 colon = tested on: HCT-15 colon
MOLT-4 leukemia = tested on: MOLT-4 leukemia
PC-3 prostate = tested on: PC-3 prostate
U251 CNS = tested on: U251 CNS
SK-OV-3 ovarian = tested on: SK-OV-3 ovarian
ACHN renal = tested on: ACHN renal
A498 renal = tested on: A498 renal
SF-539 CNS = tested on: SF-539 CNS
M14 melanoma = tested on: M14 melanoma

Compound | TGI (HS 578T breast) [µM] | TGI (HCT-15 colon) [µM] | TGI (MOLT-4 leukemia) [µM] | TGI (PC-3 prostate) [µM] | TGI (U251 CNS) [µM] | TGI (SK-OV-3 ovarian) [µM] | TGI (ACHN renal) [µM] | TGI (A498 renal) [µM] | TGI (SF-539 CNS) [µM] | TGI (M14 melanoma) [µM]
N#Cc1c(-c2ccc(Cl)cc2)cc(-c2ccc(Nc3ccnc4cc(Cl)ccc34)cc2)[nH]c1=O | 62.4 | > 100 | > 100 | > 100 | > 61 | > 79 | > 85.4 | > 88.9 | > 100 | > 100
O=C(c1ccccc1)c1ccc2nc(-c3c(Cl)c(Cl)c(Cl)c(Cl)c3-c3nnc(-c4ccccc4)o3)[nH]c2c1 | > 100 | > 100 | > 100 | > 100 | > 100 | > 100 | > 100 | 78.4 | > 100 | > 100
CC1C(NNC(N)=O)Oc2cc3c(cc2C1c1ccccc1O)OCO3 (stereo not drawn) | > 100 | > 100 | > 100 | 90.6 | > 100 | > 100 | > 100 | 68.9 | 74 | > 100
CSC(=S)Nc1cc(C)cc(C)n1 | > 31.6 | > 31.6 | > 31.6 | > 31.6 | > 31.6 | > 31.6 | > 31.6 | > 100 | > 100 | > 31.6
CC(=O)O[C@H]1CC[C@@]2(C)C(=CC[C@@H]3[C@@H]2CC[C@]2(C)C(=N/O)/C(=C\c4ccccc4)C[C@@H]32)C1 | 50.9 | > 100 | > 28.5 | > 100 | > 81.5 | > 100 | > 100 | 33 | 83.3 | 39.3
O=C(O)CSc1ccccc1C(=O)O | > 100 | > 100 | > 100 | > 100 | > 100 | > 100 | > 100 | > 100 | > 100 | > 100
COC(=O)C1CC2(C)C=CC1N(C(=O)OCc1ccccc1)C2 (stereo not drawn) | > 100 | > 100 | > 100 | > 100 | > 100 | > 100 | > 100 | > 100 | > 100 | > 100
CCOC(=O)/C(C(N)=O)=C(\O)C(=O)/C(Br)=C(\O)c1ccccc1 | 50.1 | 39.8 | 8.33 | 31.7 | 35.3 | > 57.4 | 33.3 | > 100 | 36.5 | 29.3
CCOC(=O)C1CC(C(=O)c2ccccc2)N2c3ccccc3-c3ccccc3C12 (stereo not drawn) | 97.2 | > 100 | > 100 | > 100 | > 100 | > 100 | > 100 | > 100 | > 100 | 74.2
Cc1cc(-n2nnc(C(=O)O)c2-c2ccccc2)c2ccc(Cl)cc2n1 | > 100 | > 100 | > 100 | > 100 | > 100 | > 100 | > 100 | > 100 | > 100 | > 100
COc1cc2cc(C(=O)N3CC(COS(C)(=O)=O)c4ccc(NC(=O)OCc5ccccc5)cc43)[nH]c2c(OC)c1OC (stereo not drawn) | > 100 | > 100 | > 100 | > 100 | > 100 | > 100 | > 100 | > 100 | > 100 | > 100
C=C(C(=O)O[C@H]1C/C(C)=C/CC/C(CO)=C/[C@H]2C(=O)OC(=C)[C@H]12)C(O)CO (stereo partly drawn) | 57.9 | 24.4 | 13.2 | 22.2 | 27.1 | 35.1 | 24.8 | 32.7 | 10.4 | 28.5
Cc1ccc(S(=O)(=O)NC(CCC(=O)NNc2ccccc2)C(=O)NNc2ccccc2)cc1 (stereo not drawn) | > 100 | > 100 | > 100 | > 100 | > 100 | > 100 | > 100 | > 100 | > 100 | 78.8
CC1=NN(c2cccc(Cl)c2)C2(C1=Cc1ccc(O)cc1)C(Cl)C(=O)N2c1nc2ccccc2s1 (stereo not drawn) | > 100 | 32.1 | 44.2 | 51.9 | 49.2 | 57.4 | 52.7 | 42.5 | > 100 | 58.7
O=C(Nc1sccc1S(=O)(=O)c1ccc(Cl)cc1)c1ccc(F)cc1F | 80.5 | > 100 | 56.7 | > 100 | 45 | 53.4 | > 100 | 51.5 | 30.5 | > 100
Cc1cn(C2CCC(CO)(CF)O2)c(=O)[nH]c1=O (stereo not drawn) | > 100 | > 100 | > 100 | > 100 | > 100 | > 100 | > 100 | > 100 | > 100 | > 100
FC(F)(F)c1cc(N(C2c3ccccc3C=Cc3ccccc32)P(Cl)Cl)cc(C(F)(F)F)c1 | 79.5 | 45.5 | 54.4 | 78.1 | 33.8 | 69.8 | 33.9 | 56.8 | 66.6 | 58
COC(=O)C1=C(OC(=O)/C(=C/c2ccccc2)c2ccc(OC)cc2)C(C(=O)OC)[C@@]2(O)[C@@H](C(=O)OC)[C@H](C)C[C@@H]1[C@@H]2C(=O)OC (stereo partly drawn) | 99.3 | > 100 | > 100 | > 100 | > 100 | > 100 | > 100 | > 100 | > 100 | > 100
C1=NCCNCCNCCN=Cc2ccc(cc2)OCc2cccc(n2)COc2ccc1cc2 | > 100 | > 100 | > 100 | > 100 | > 100 | > 100 | > 100 | > 100 | > 100 | > 100
Cn1nc2ccc(Nc3cc(=O)[nH]c4ccc5nn(C)nc5c34)cc2n1 | > 100 | > 100 | > 100 | > 100 | > 100 | > 100 | > 100 | > 100 | > 100 | > 100
CC(C)(C)C1CCC2c3c([nH]c4ccccc34)C3C(=O)N(c4ccc(C#N)cc4)C(=O)C3C2C1 (stereo not drawn) | 37 | 26.2 | > 100 | 17.6 | 37.1 | > 100 | 65.3 | 35.5 | 43.2 | 72.6
COc1cc(/C=C2\CC/C(=C\c3cc(OC)c(O)c(OC)c3)C2=O)cc(OC)c1O | 15.8 | 18.7 | 8 | 19.7 | > 49.2 | > 100 | 6.58 | 2.86 | > 100 | > 23.6
NS(=O)(=O)c1nc(S(=O)(=O)O)c2[nH]cnc2n1 | > 100 | > 100 | > 100 | > 100 | > 100 | > 100 | > 100 | > 100 | > 100 | > 100
CCCC[C@@H](C)/C=C1\CN2CCC[C@H]2[C@@](C)(OCc2ccccc2)[C@@H]1O | > 50 | > 50 | > 50 | > 50 | > 50 | > 50 | > 50 | > 50 | 49.7 | > 50
Cc1cc(S(=O)(=O)Nc2nc3ncccc3[nH]2)c(S)cc1Cl | > 100 | > 100 | > 100 | > 100 | > 100 | > 100 | > 100 | > 100 | > 100 | > 100
NC(Cc1ccc(OCc2ccccc2)cc1)C(=O)NC(Cc1ccccc1)C(=O)Oc1c(Cl)c(Cl)c(Cl)c(Cl)c1Cl (stereo not drawn) | 31 | 30.2 | > 100 | 32.4 | 31.2 | 28.9 | 30.5 | 37.9 | 30.6 | 28.5
c1nc(NCCc2cnc[nH]2)c2[nH]cnc2n1 | > 100 | > 100 | > 100 | > 100 | > 100 | > 100 | > 100 | > 100 | > 100 | > 100
COc1ccccc1-n1c(=O)n(C)c(=O)n1C(C)(C)C | > 100 | > 100 | > 100 | > 100 | > 100 | > 100 | – | > 100 | > 100 | > 100
C[C@@H]1[C@@H](C)C(c2ccccc2)O[Si]1(C(C)(C)C)C(C)(C)C (stereo partly drawn) | 42.6 | > 55.3 | 33.9 | 33.1 | 30.7 | > 69.3 | 31.5 | 33.9 | 30.7 | 42.2
COc1cccc(N=N/C(=N/NC(=O)c2ccc(C)cc2)c2ccc(N(CCC#N)CCC#N)cc2OC)c1 | > 100 | > 100 | > 100 | > 100 | > 100 | > 100 | > 100 | > 100 | – | > 100
